Type in all cases: cell-based
The test system of test [1] is normal human fibroblasts (NHF, GM21811). Put plainly: NHF GM21811 RSL3 challenge cell survival (rescue) assay. To be noted: Fibroblast, 48 h, read-out: NHF GM21811 RSL3 Survival EC50. The method, boiled down:
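Q7 (33° C.) or NHF (37° C.) cells, 3,000/well, attached 5 h, then test compounds at varying final concentrations followed within 15 min by RSL3 (2 micromolar final); 0.3% DMSO. Assay medium identical to growth medium.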

Test [2] has as its system Q7 cells (ST HDH Q7/7; immortalized mouse striatal cells). Put plainly: Q7 RSL3 challenge cell survival (rescue) assay. To be noted: 18 h, read-out: Q7 RSL3 Survival EC50. From the text: In neuronal cells excess extracellular glutamate inhibits the cystine/glutamate antiporter leading to intracellular cysteine depletion, GSH depletion, reactive oxygen species (ROS) production and cell death, a phenomenon termed oxidative glutamate toxicity, oxytosis, or ferroptosis. […] Q7 cells (ST HDH Q7/7; immortalized mouse striatal cells) challenged with cystine-free media or the selective, irreversible GPX4 inhibitor, methyl (1S,3R)-2-(2-chloroacetyl)-1-(4-(methoxycarbonyl)phenyl)-2,3,4,9-tetrahydro-1H-pyrido[3,4-b]indole-3-carboxylate (hereafter referred to as RSL3), recapitulate this phenotype, as do normal human fibroblasts (NHF) challenged with RSL3. An initial screen was performed to identify compounds effective in rescuing Q7 and/or NHF cells from death resulting from cystine deprivation or RSL3 challenge. This method is further described in Yonezawa et al., J. Neurochem 67, 566-573 (1996), Li et al., J Neurosci., 23, 5816-5826 (2003), Yang and Stockwell, Chem Biol., 15: 234-45 (2008), and Yang et al., Cell 156, 317-331 (2014). See also Hinman A, Holst C R, Latham J C, et al. Vitamin E hydroquinone is an endogenous regulator of ferroptosis via redox control of 15-lipoxygenase. PLoS One. 2018; 13(8):e0201369. Published 2018 Aug. 15. doi:10.1371/journal.pone.0201369; and Kahn-Kirby A H, Amagata A, Maeder C I, et al. Targeting ferroptosis: A novel therapeutic strategy for the treatment of mitochondrial disease-related epilepsy. PLoS One. 2019; 14(3):e0214250. Published 2019 Mar. 28. doi:10.1371/journal.pone.0214250.
DMEM (Catalog no. 11995-040), DMEM without Cystine (Catalog no. 21013-024), DMEM without Glucose (Catalog A1443001), PBS (Phosphate buffered saline), Penicillin-streptomycin mix, L-Glutamine, Glucose, Phenol Red, and Pyruvate were purchased from ThermoFisher Scientific (Gibco). Fetal Bovine Serum was obtained from Mediatech, Inc., or Sigma Aldrich. Mouse striatum derived ST HDH Q7/7 (Q7) and normal human skin fibroblast (NHF, product number GM21811) cells were obtained from the Coriell Institute. Methionine and Vitamin K2 were purchased from Sigma Aldrich. RSL3 was synthesized as previously described (see e.g. US Patent Publication US2010/0081654). Cell Titer Glo 2.0 was purchased from Promega. Q7 cell culture medium (Q7 growth medium) was made by combining 50 mL Fetal Bovine Serum, 100 U/mL penicillin, and 100 microgram/mL streptomycin; DMEM was added to make the volume up to 500 mL. Assay medium for the Cystine Deprivation assay was prepared by combining 50 mL Fetal Bovine Serum, 100 U/mL penicillin, 100 microgram/mL streptomycin, 4 mM L-Glutamine, 1 mM Pyruvate and 30 mg/L Methionine; DMEM without Cystine was added to make the volume up to 500 mL. NHF cell culture medium (NHF growth medium) was made by combining 50 mL Fetal Bovine Serum, 100 U/mL penicillin, 100 microgram/mL streptomycin, 2.8 mL 20% Glucose solution (final concentration 6 mM), L-glutamine (final concentration 2 mM), phenol red (final concentration 15 mg/L); DMEM without Glucose was added to make the volume up to 500 mL. Assay medium for the RSL3 challenge assay was identical to Growth medium. While not in use during the course of the experiments, these solutions were stored at 4° C. The cells were grown in 150-cm^2 tissue culture-treated flasks. Every third or fourth day, the cells were sub-cultured by trypsinization and re-seeded at a cell density of 600,000 (Q7) or 300,000 (NHF) cells per flask.
Q7 or NHF cells were cultured routinely as described herein. For 384-well cell survival assays, cells were seeded in clear bottom, black wall 384-well tissue culture-treated polystyrene plates by re-suspending a cell suspension at a density of 50,000 cells/mL in growth medium, then dispensing 60 microliters of cell suspension per well using either an electronic multichannel pipette or a Multidrop™ Combi Reagent Dispenser (ThermoFisher Scientific), corresponding to 3,000 cells/well. […]

The test system is the same in test [3]. Put plainly: Q7 Cystine Deprivation cell survival (rescue) assay. The conditions noted are these: 18 h, read-out: Q7 Cystine Deprivation Survival EC50. In a few lines:
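Cells were seeded at 3,000/well and allowed to attach for 5 h at 33 °C. Wells were then washed twice with PBS and switched to cystine-free DMEM containing FBS, 4 mM L-glutamine, 1 mM pyruvate and 30 mg/L methionine to induce ferroptotic death. Compounds were scored for survival rescue.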

The mark [4] stands for this setting: NHF cells, RSL3 2 micromolar, Cell Titer Glo.
The mark [5] stands for this setting: Q7 cells, RSL3 2 micromolar, Cell Titer Glo.
Setting [6] is: Q7 cells, cystine-free medium, Cell Titer Glo, 50% relative viability vs Vitamin K2 (1 micromolar).

pEC50: −log10 of the molar value. Like-named read-outs stand apart in the source and are kept apart here.

For orientation: pEC50 means the EC50 on a negative log10 scale, so that one unit is a factor of ten. For the molecule `CC1=C(Cc2ccc(F)cn2)C(=O)c2ccccc2C1=O` [Example 6, 2-((5-fluoropyridin-2-yl)methyl)-3-methylnaphthalene-1,4-dione], the pEC50 in test [1] (setting [4]), in test [2] (setting [5]) and in test [3] (setting [6]) was above 7.30 throughout.
`CC1=C(Cc2ccc(C(F)F)cn2)C(=O)c2ccccc2C1=O` [Example 20, 2-((5-(difluoromethyl)pyridin-2-yl)methyl)-3-methylnaphthalene-1,4-dione]: the pEC50 in test [1] (setting [4]), in test [2] (setting [5]) and in test [3] (setting [6]) was above 7.30 throughout.
For the molecule `[2H]C([2H])(C1=C(C)C(=O)c2ccccc2C1=O)c1ccc(C(F)(F)F)cn1` [Example 21, 2-methyl-3-((5-(trifluoromethyl)pyridin-2-yl)methyl-d2)naphthalene-1,4-dione], the negative logarithm of the EC50 (pEC50) in test [1] (setting [4]) and in test [2] (setting [5]) was above 7.30 throughout.
Take `CC1=C(Cc2ccc(C(F)(F)F)cn2)C(=O)c2c(F)cc(F)cc2C1=O` [Example 50, 5,7-difluoro-2-methyl-3-((5-(trifluoromethyl)pyridin-2-yl)methyl)naphthalene-1,4-dione]: the pEC50 in test [2] (setting [5]) and in test [3] (setting [6]) was above 7.30 in each case.
Take `CC1=C(Cc2ccc(C(F)(F)F)cn2)C(=O)c2cc(C(F)(F)F)ccc2C1=O` [Example 53, 2-methyl-6-(trifluoromethyl)-3-((5-(trifluoromethyl)pyridin-2-yl)methyl)naphthalene-1,4-dione]: the pEC50 in test [2] (setting [5]) and in test [3] (setting [6]) was 6.60 to 7.30 throughout.
In the case of `[2H]C([2H])([2H])C1=C(Cc2ccc(C(F)(F)F)cn2)C(=O)c2ccccc2C1=O` [Example 54, 2-(methyl-d3)-3-((5-(trifluoromethyl)pyridin-2-yl)methyl)naphthalene-1,4-dione], the pEC50 in test [2] (setting [5]) and in test [3] (setting [6]) was above 7.30 each time.
As to `CCC1=C(Cc2ccc(C(F)(F)F)cn2)C(=O)c2cc(F)cc(F)c2C1=O` [Example 56, 3-ethyl-5,7-difluoro-2-((5-(trifluoromethyl)pyridin-2-yl)methyl)naphthalene-1,4-dione], the pEC50 in test [1] and in test [2] was above 7.30 each time.
For `CC1=C(Cc2ccc(C(F)(F)F)cn2)C(=O)c2cccc(Cl)c2C1=O` [Example 60, 5-chloro-3-methyl-2-[[5-(trifluoromethyl)-2-pyridyl]methyl]naphthalene-1,4-dione], the pEC50 in test [1] (setting [4]) and in test [2] (setting [5]) was above 7.30 in each case.
As to `[2H]C([2H])([2H])C1=C(Cc2ccc(C(F)(F)F)c(C#N)n2)C(=O)c2cc(F)cc(F)c2C1=O` [Example 71, 6-((5,7-difluoro-3-(methyl-d3)-1,4-dioxo-1,4-dihydronaphthalen-2-yl)methyl)-3-(trifluoromethyl)picolinonitrile], the pEC50 in test [1] (setting [4]) and in test [2] (setting [5]) was above 7.30 in each case.
Regarding `[2H]C([2H])([2H])C1=C(Cc2ccc(C(F)(F)F)c(C#N)n2)C(=O)c2c(F)cc(F)cc2C1=O` [Example 72, 6-((6,8-difluoro-3-(methyl-d3)-1,4-dioxo-1,4-dihydronaphthalen-2-yl)methyl)-3-(trifluoromethyl)picolinonitrile], the pEC50 in test [1] (setting [4]) and in test [2] (setting [5]) was above 7.30 in each case.
In the case of `[2H]C([2H])([2H])C1=C(Cc2ccc(C(F)(F)F)c(C#N)n2)C(=O)c2ccc(F)cc2C1=O` [Example 73, 6-((6-fluoro-3-(methyl-d3)-1,4-dioxo-1,4-dihydronaphthalen-2-yl)methyl)-3-(trifluoromethyl)picolinonitrile], the pEC50 in test [1] (setting [4]) and in test [2] (setting [5]) was above 7.30 in each case.
For `CC1=C(Cc2ccc(C(F)(F)F)c(C#N)n2)C(=O)c2cc(F)cc(F)c2C1=O` [Example 74, 6-((5,7-difluoro-3-methyl-1,4-dioxo-1,4-dihydronaphthalen-2-yl)methyl)-3-(trifluoromethyl)picolinonitrile], the pEC50 is above 7.30 in test [1] (setting [4]) and 6.60 to 7.30 in test [2] (setting [5]).
In the case of `CC1=C(Cc2ccc(C(F)(F)F)c(C#N)n2)C(=O)c2c(F)cc(F)cc2C1=O` [Example 75, 6-((6,8-difluoro-3-methyl-1,4-dioxo-1,4-dihydronaphthalen-2-yl)methyl)-3-(trifluoromethyl)picolinonitrile], the pEC50 in test [1] (setting [4]) and in test [2] (setting [5]) was above 7.30 in each case.
Regarding `[2H]C([2H])([2H])C1=C(Cc2ccc(C(F)(F)F)c(C#N)n2)C(=O)c2c(F)ccc(F)c2C1=O` [Example 76, 6-((5,8-difluoro-3-(methyl-d3)-1,4-dioxo-1,4-dihydronaphthalen-2-yl)methyl)-3-(trifluoromethyl)picolinonitrile], the pEC50 in test [1] (setting [4]) and in test [2] (setting [5]) was above 7.30 throughout.
For the molecule `CC1=C(Cc2ccc(C(F)(F)F)c(C#N)n2)C(=O)c2ccccc2C1=O` [Example 77, 6-((3-methyl-1,4-dioxo-1,4-dihydronaphthalen-2-yl)methyl)-3-(trifluoromethyl)picolinonitrile], the pEC50 in test [1] (setting [4]) and in test [2] (setting [5]) was above 7.30 each time.
With `CCCC1=C(Cc2ccc(C(F)(F)F)c(C#N)n2)C(=O)c2cc(F)cc(F)c2C1=O` [Example 82, 6-((5,7-difluoro-1,4-dioxo-3-propyl-1,4-dihydronaphthalen-2-yl)methyl)-3-(trifluoromethyl)picolinonitrile], the negative-log EC50 (pEC50) in test [1] (setting [4]) and in test [2] (setting [5]) was above 7.30 in each case.
In the case of `O=C1C(Cc2ccc(F)cn2)=C(C2CC2)C(=O)c2c(F)ccc(F)c21` [Example 87, 2-cyclopropyl-5,8-difluoro-3-((5-fluoropyridin-2-yl)methyl)naphthalene-1,4-dione], the pEC50 in test [1] (setting [4]) and in test [2] (setting [5]) was above 7.30 throughout.
In the case of `CCC1=C(Cc2ccc(F)cn2)C(=O)c2c(F)ccc(F)c2C1=O` [Example 88, 2-ethyl-5,8-difluoro-3-((5-fluoropyridin-2-yl)methyl)naphthalene-1,4-dione], the pEC50 in test [1] (setting [4]) and in test [2] (setting [5]) was above 7.30 in each case.
For `CCCC1=C(Cc2ccc(C(F)(F)F)c(C#N)n2)C(=O)c2ccccc2C1=O` [Example 114, 6-((1,4-dioxo-3-propyl-1,4-dihydronaphthalen-2-yl)methyl)-3-(trifluoromethyl)picolinonitrile], the pEC50 in test [2] (setting [5]) and in test [3] (setting [6]) was above 7.30 each time.
Regarding `Cc1c(Cc2ccc(C(F)(F)F)cn2)c(O)c2ccccc2c1O` [Example 131, 2-methyl-3-((5-(trifluoromethyl)pyridin-2-yl)methyl)naphthalene-1,4-diol], the pEC50 in test [2] and in test [3] was above 7.30 throughout.

Values taken from patent US20230002324A1, “NAPHTHOQUINONE DERIVATIVES FOR TREATMENT OF OXIDATIVE STRESS DISORDERS” (PTC THERAPEUTICS, INC., priority 2019, published 2023).
